# Test results taken from patent publication US11306124B2, “Agonist agents of CD47 inducing programmed cell death and their use in the treatments of diseases associated with defects in programmed cell death” (SORBONNE UNIVERSITE, priority 2016, dated 2022).
# Like-named read-outs stand apart in the source and are kept apart here. Residues, ends and D or L forms follow the SMILES beside them.
# Key:
# [1] = tested on: HCT-116 cells; type: cell-based, human; details: human, 2 h
# Experimental: 2.2.2. Cell Death Analysis by Flow Cytometry
# To detect possible apoptotic processes, cells were seeded in 35 mm dishes and cultured in media containing each tested cyclic peptide for 2 hours following procedure A or B.
# Procedure B: Peptides were incubated for 2 hours on HCT-116 cells. Superkiller Trail (ALX-201-115C-010) was used as a positive pro-apoptotic control. Cells were analyzed by cytofluorometry using FITC Annexin V apoptosis detection kit with 7-AAD from BIOLEGEND (BLE640922).
# [2] = tested on: MCF-7, HCT-116, BxPC3 and A549 cancer cells; assay: Cell viability and proliferation of tumor cells (cytotoxic assay and direct cell counting); type: cell-based, human; details: for viability in all cell strains: 2 hours, 10 to 50 μM peptide concentration; for efficiency in inducing cell death on cancer cell lines: MCF-7, HCT-116, BxPC3, A549
# Experimental: The effects of several cyclic peptides of the invention on the proliferation of tumor cells were evaluated on 5 cell lines (MCF-7, human breast cancer cells; HCT-116, human colon cancer cells; BxPC3, human pancreas cancer cells and A549, human lung cancer cells) by cytotoxic assay and by counting directly the number of cells.
# Those cyclic peptides were dissolved in DMSO at the following concentrations: 0, 5, 10, 25, 50 and 100 μM.
# Culture media used for these assays are: EMEM=10% SVF for MCF-7 and Wi38; RPMI […] SVF for HCT-116 and BxPC3 and F-12K=10% SVF for A549.
# 500 cells were seeded in 96-well plates, incubated at 37° C. for 24 hours, and treated by the cyclic peptides at the different concentrations and controls for 2 h.
Compound,"Viable, Mean (%) ([1]; 12.5 μM)","Viable, Mean (%) ([1]; 25 μM)","Viable, Mean (%) ([1]; 50 μM)",viability in all cell strains [2],efficiency in inducing cell death on cancer cell lines [2]
"CSCC[C@@H]1NC(=O)[C@@H](C(C)C)NC(=O)[C@H](C(C)C)NC(=O)[C@H](Cc2ccc(O)cc2)NC(=O)[C@H](Cc2ccccc2)NC(=O)[C@H](CCCNC(=N)N)N(C)C(=O)[C@H](CO)NC(=O)[C@H](CO)NC(=O)[C@H](CC(N)=O)NC(=O)[C@H](C(C)C)NC(=O)[C@H](C(C)C)NC(=O)[C@H](CCCCN)NC(=O)[C@H](C(C)C)NC(=O)[C@H](CO)NC(=O)[C@H](CC(C)C)NC(=O)CNC(=O)[C@@H]2CCCN2C(=O)[C@H]2CCCN2C(=O)[C@H](CCCCN)NC(=O)[C@H](Cc2c[nH]c3ccccc23)NC1=O (relative stereo) [PKTD10-RNMe, —S—R*—F—Y—V—V—M—W—K—p—P—G—L—S—V—K—V—V—N—S— R* = RNMe]",91.72,91.10,76.73,–,–
"CCCC[C@@H]1NC(=O)[C@@H](C(C)C)NC(=O)[C@H](C(C)C)NC(=O)[C@H](Cc2ccc(O)cc2)NC(=O)[C@H](Cc2ccccc2)NC(=O)[C@H](CCCNC(=N)N)N(C)C(=O)[C@H](CO)NC(=O)[C@H](CO)NC(=O)[C@H](CC(N)=O)NC(=O)[C@H](C(C)C)NC(=O)[C@H](C(C)C)NC(=O)[C@H](CCCCN)NC(=O)[C@H](C(C)C)NC(=O)[C@H](CO)NC(=O)[C@H](CC(C)C)NC(=O)CNC(=O)[C@@H]2CCCN2C(=O)[C@H]2CCCN2C(=O)[C@H](CCCCN)NC(=O)[C@H](Cc2c[nH]c3ccccc23)NC1=O (relative stereo) [PKTD10-X-RNMe, —S—R*—F—Y—V—V—X—W—K—p—P—G—L—S—V—K—V—V—N—S— R* = RNMe and X = NLe]",82.76,75.17,48.31,–,–
"CSCC[C@@H]1NC(=O)[C@H](C(C)C)NC(=O)[C@H](C(C)C)NC(=O)[C@H](Cc2ccc(O)cc2)NC(=O)[C@H](Cc2ccccc2)NC(=O)[C@H](CCCNC(=N)N)N(C)C(=O)[C@H](CO)NC(=O)[C@H](CO)NC(=O)[C@H](CC(N)=O)NC(=O)[C@H](C(C)C)NC(=O)[C@H](C(C)C)NC(=O)[C@H](CCCCN)NC(=O)[C@H](C(C)C)NC(=O)[C@H](CO)NC(=O)[C@H](CC(C)C)NC(=O)CNC(=O)[C@H](CO)NC(=O)[C@@H]2CCCN2C(=O)[C@H]2CCCN2C(=O)[C@H](CCC(N)=O)NC(=O)[C@H](CCCCN)NC(=O)[C@H](Cc2c[nH]c3ccccc23)NC1=O (relative stereo) [PKTD11RNMe, —S—R*—F—Y—V—V—M—W—K—Q—p—P—S—G—L—S—V—K—V—V—N—S— R* = RNMe]",88.71,86.38,67.03,–,–
"CC(C)C[C@@H]1NC(=O)[C@@H]2CCCN2C(=O)[C@H]2CCCN2C(=O)[C@H](Cc2c[nH]c3ccccc23)NC(=O)[C@H](CCCCN)NC(=O)[C@H](C(C)C)NC(=O)[C@H](C(C)C)NC(=O)[C@H](Cc2ccccc2)NC(=O)[C@H](Cc2ccccc2)NC(=O)[C@H](C(C)C)NC(=O)[C@H](C(C)C)NC(=O)[C@H](CCCCN)NC(=O)[C@H](C(C)C)NC(=O)[C@H](CO)NC1=O [PKD10-FF, —F—F—V—V—K—W—p—P—L—S—V—K—V—V—] (HELM PEPTIDE1{F.F.V.V.K.W.[dP].P.L.S.V.K.V.V}$PEPTIDE1,PEPTIDE1,1:R1-14:R2$$$V2.0)",25.225,30.445,31.97,–,–
"CC[C@H](C)[C@@H]1NC(=O)CNC(=O)[C@@H]2CCCN2C(=O)[C@H]2CCCN2C(=O)[C@H](CCCCN)NC(=O)[C@H](Cc2c[nH]c3ccccc23)NC(=O)[C@H](CCSC)NC(=O)[C@H](C(C)C)NC(=O)[C@H](C(C)C)NC(=O)[C@H](Cc2ccc(O)cc2)NC(=O)[C@H](Cc2ccccc2)NC(=O)[C@H](CCCNC(=N)N)NC(=O)[C@H](CO)NC(=O)[C@H](CO)NC(=O)[C@H](CCCCN)NC(=O)[C@H](C(C)C)NC(=O)[C@H](C(C)C)NC(=O)[C@H](CCCCN)NC(=O)[C@H](C(C)C)NC(=O)[C@H](CO)NC1=O [PKTD1, —S—R—F—Y—V—V—M—W—K—p—P—G—I—S—V—K—V—V—K—S—] (HELM PEPTIDE1{G.I.S.V.K.V.V.K.S.S.R.F.Y.V.V.M.W.K.[dP].P}$PEPTIDE1,PEPTIDE1,1:R1-20:R2$$$V2.0)",76.44,63.51,37.56,–,–
"CC[C@@H](C)[C@@H]1NC(=O)CNC(=O)[C@@H]2CCCN2C(=O)[C@H]2CCCN2C(=O)[C@H](CCCCN)NC(=O)[C@H](Cc2c[nH]c3ccccc23)NC(=O)[C@H](CCSC)NC(=O)[C@@H](C(C)C)NC(=O)[C@H](C(C)C)NC(=O)[C@H](Cc2ccc(O)cc2)NC(=O)[C@H](Cc2ccccc2)NC(=O)[C@H](CCCNC(=N)N)NC(=O)C(CC(N)=O)NC(=O)[C@H](C(C)C)NC(=O)[C@H](C(C)C)NC(=O)[C@H](CCCCN)NC(=O)[C@H](C(C)C)NC(=O)[C@H](CO)NC1=O (some centres unmarked) [PKTD7, —R—F—Y—V—V—M—W—K—p—P—G—I—S—V—K—V—V—N—] (HELM PEPTIDE1{G.[CC[C@@H](C)[C@H](N[*:1])C(=O)[*:2]].S.V.K.V.V.[NC(=O)CC(N[*:1])C(=O)[*:2]].R.F.Y.V.[dV].M.W.K.[dP].P}$PEPTIDE1,PEPTIDE1,1:R1-18:R2$$$V2.0)",–,–,–,dose-dependent viability decrease,efficient in inducing cell death
"CSCC[C@@H]1NC(=O)[C@@H](C(C)C)NC(=O)[C@H](C(C)C)NC(=O)[C@H](Cc2ccc(O)cc2)NC(=O)[C@H](Cc2ccccc2)NC(=O)[C@H](CCCNC(=N)N)NC(=O)[C@H](CO)NC(=O)CNC(=O)[C@H](CC(N)=O)NC(=O)[C@H](C(C)C)NC(=O)[C@H](C(C)C)NC(=O)[C@H](CCCCN)NC(=O)[C@H](C(C)C)NC(=O)[C@H](CO)NC(=O)[C@H](CC(C)C)NC(=O)CNC(=O)[C@@H]2CCCN2C(=O)[C@H]2CCCN2C(=O)[C@H](CCCCN)NC(=O)[C@H](Cc2c[nH]c3ccccc23)NC1=O [PKTD18, —S—R—F—Y—V—V—M—W—K—p—P—G—L—S—V—K—V—V—N—G—] (HELM PEPTIDE1{S.R.F.Y.V.[dV].M.W.K.[dP].P.G.L.S.V.K.V.V.N.G}$PEPTIDE1,PEPTIDE1,1:R1-20:R2$$$V2.0)",82.45,75.12,67.48,–,–
—S—R—F—Y—V—V—M—W—K—Q—p—P—S—G—L—S—V—K—V—V—N—S— [PKTD11],–,–,–,dose-dependent viability decrease,efficient in inducing cell death
"—S—R—F—Y—V—V—M—W—K—p—P—S—R—F—Y—V—V—M—W—K— (SRFYVVMWKPPSRFYVVMWK; HELM PEPTIDE1{S.R.F.Y.V.V.M.W.K.[dP].P.S.R.F.Y.V.V.M.W.K}$PEPTIDE1,PEPTIDE1,1:R1-20:R2$$$V2.0; SMILES CSCC[C@@H]1NC(=O)[C@H](C(C)C)NC(=O)[C@H](C(C)C)NC(=O)[C@H](Cc2ccc(O)cc2)NC(=O)[C@H](Cc2ccccc2)NC(=O)[C@H](CCCNC(=N)N)NC(=O)[C@H](CO)NC(=O)[C@@H]2CCCN2C(=O)[C@H]2CCCN2C(=O)[C@H](CCCCN)NC(=O)[C@H](Cc2c[nH]c3ccccc23)NC(=O)[C@H](CCSC)NC(=O)[C@H](C(C)C)NC(=O)[C@H](C(C)C)NC(=O)[C@H](Cc2ccc(O)cc2)NC(=O)[C@H](Cc2ccccc2)NC(=O)[C@H](CCCNC(=N)N)NC(=O)[C@H](CO)NC(=O)[C@H](CCCCN)NC(=O)[C@H](Cc2c[nH]c3ccccc23)NC1=O; listed as Homo sapiens) [PKTD16]",–,–,–,dose-dependent viability decrease,–
